The record followed here is ChEMBL document CHEMBL5543137, “Design and Synthesis of Novel Ultralong-Acting Peptides as EDP-EBP Interaction Inhibitors for Pulmonary Fibrosis Treatment” (J Med Chem, 2024).

Calls of active or inactive are those of the source. No cut-off for these calls is given here.

The subject of data set [1] is Mus musculus. Put plainly: Antifibrotic activity against BLM-induced C57BL/6 mouse pulmonary fibrosis model assessed as improvement in lung condition at 30 mg/kg, po administered for 2 weeks starting from 7 days post BLM induction and measured after 21 days post BLM induction. Type of data set: functional, organism-based.
Data set [2] can be described thus: Binding affinity to EBP (unknown origin) by ITC method. Set-up: species or system Homo sapiens.
Data set [3] can be described thus: Tmax in Sprague-Dawley rat serum at 600 ug/kg, sc administered as single dose measured upto 10 days by LC-MS/MS method. It counts as ADME, organism-based. To be noted: 0.6 mg/kg, dose 600 µg/kg, time < 10 day.
A short description of data set [4]: Half-life in Sprague-Dawley rat serum at 600 ug/kg, sc administered as single dose measured upto 10 days by LC-MS/MS method. Type of data set: ADME, organism-based. As to conditions: 0.6 mg/kg, dose 600 µg/kg, time < 10 day.

As for `COC(=O)c1ccc2c(c1)NC(=O)/C2=C(\Nc1ccc(N(C)C(=O)CN2CCN(C)CC2)cc1)c1ccccc1`, the outcome in data set [1] was Active.

In data set [2], H-VVGSPSAQDEASPL-NH2 displayed a Kd of 539 µM. The Tmax in data set [3] came out at 4.98 min. This molecule also had a half-life in data set [4] of 5.88 min.
